In patent US5756538A, “Flavonoid and biflavonoid derivatives, their pharmaceutical compositions, their anxiolytic activity” (University of Strathclyde, priority 1993, dated 1998):
Like-named read-outs stand apart in the source and are kept apart here.

What was measured:
mice [1] = experiment: Locomotor activity test (OPTO-VARIMEX); details: 0.6-1 mg/kg i.p., 20 min after injection
Procedure: Male CF1 mice from our breeding stock weighing 28-35 g were used. The animals were placed in groups of 10-12 with free access to water and food, and maintained on a 12 h/12 h day-night cycle.
Diazepam (DZ; Hoffman-La Roche) and the flavonoids were dissolved in DMSO 40%, NaOH 0.1N (7:3: v/v) at pH 8.2 Control animals were injected with the same vehicle (VEH). RO 15-1788 (Hoffmann-La Roche) was suspended in DMSO 10%, propyleneglycol 10% in distilled water.
(c) Locomotor Activity Test: we used an OPTO-VARIMEX apparatus consisting of a glass box (36×15×20 cm) and two lateral bars with 15 light beams (0.32 cm diameter, beam spacing 2.65 cm). The apparatus detects automatically all the mouse movements, and discriminates between total and ambulatory activity. The locomotor activity (number of movements across the beams) was counted during 5 min. An increase in the number of transitions through the beams reflects an augmented locomotor activity.
The general procedure for all the tests is as follows: mice were injected with vehicle or the drug solution 20 min before the beginning of the test and put into another home cage. Ro 15-1788, a specific BZD receptor antagonist was injected 10 min before the tested drug. All the injections were given intraperitoneally (i.p.). Control mice were tested in each session, in parallel with those animals receiving the test drug or diazepam. Testing was carried out `blind`. All data were submitted to analysis of variance (ANOVA). Post-hoc comparisons between individual treatments and controls were made using Dunnett's t-test.
FIGS. 15, 16, 17 and 18 show ambulatory locomoter activity counts during a 5 min. test session in an OPTO-Varimex apparatus, 20 min. after i.p. injection with a mixture of brominated flavones (0.6,1,3 mg/kg), FIG. 15; 2' chlorinated chrysin (1,3 mg/kg); FIG. 16; 2' fluorinated chrysin (3 mg/kg), FIG. 17; 6,8 dibromoflavone, FIG. 18. Data are expressed as medians (interquartile range) of (n) number of animals.

benzodiazepine receptors = details: Medina et al. 1990; cited from earlier work
mice [2] = experiment: Horizontal wire test (muscle relaxation); assay type: in vivo, mice (male CF1)
Procedure: (d) Horizontal Wire Test: It consisted of an horizontally strung wire (1 mm diameter, 15 cm long), placed at 20 cm from the table. Mice were lifted by the tail, allowed to grasp the wire with their forepaws and released. […] After two trials, performed at 5 min. intervals, the test took place. A myorelaxant drug, like diazepam at high doses, will impair the ability of mice to grasp the wire. Generally, this state of muscle relaxation is commonly associated with sedation.
(§1) All the injections were given intraperitoneally (i.p.). […] Testing was carried out `blind`. All data were submitted to analysis of variance (ANOVA).
The test took place after two trials, executed after a 5 min interval.

mice [3] = experiment: Holeboard test (exploratory activity, sedation); assay type: in vivo, mice (male CF1)
Procedure: (b) Holeboard Test: consisted of a wood box (60×60×30 cm) with four 2 cm diameter holes equidistant in the floor. The number of head-dips and the time spent head-dipping were counted during 5 min. An increase in the number and the time spent head-dipping implies a greater exploratory activity.
as §1

benzodiazepine receptor = experiment: Competitive inhibition of 3H-flunitrazepam binding to benzodiazepine receptor (cerebral cortical membranes); set-up: species or system bovine
Procedure: (Competitive inhibition of H^3 -flunitrazepam to benzodiazepine receptor)
Binding of 3H-flunitrazepam (0.7 nM) to the benzodiazepine receptor was carried out in extensively washed cerebral cortical membranes.
H^3 -flunitrazepam has a Ki of […] to the benzodiazepine receptor.
IC50 values were obtained using flavonoids at different concentrations (10^-10 to 10^-3 M).
Structure - activity relationships of several flavonoids on
the ^3 H Flunitrazepam binding to bovine brain membranes.

[4] = tested on: locus coeruleus noradrenaline; experiment: Noradrenaline levels in locus coeruleus after immobilization stress; assay type: in vivo, rats; details: 1 mg/kg i.p., 30 min before 90-min stress session
Procedure: Rats were submitted to a 90-minute immobilization stress session in a plastic cylinder. The locus coeruleus was dissected out after killing by decapitation and noradrenaline assessed by HPLC with electrochemical detection. Doses were 1 mg/kg for each substance, injected i.p., 30 minutes before the stress session.

[5] = Medina et al. 1990; cited from earlier work
mice [6] = experiment: Elevated plus maze (anxiety); assay type: in vivo, mice (male CF1); details: for Total arm entries: 5 min test, mean ± S.E.M.
Procedure: (a) Elevated Plus Maze: consisted of 4 perpendicularly disposed wood arms (20×5 cm; two had 35 cm high wood walls, and two were open) linked by a central 10×10 cm square. The maze was suspended 50 cm from the room floor. Animals were placed on the central part of the maze facing a closed arm. This test has been widely validated to measure anxiety in rodents. The number of entries into and the time spent in the open and closed arms were counted during 5 min. […] Total exploratory activity (number of entries in both arms) was also determined.
as §1

[7] = 1 mg/kg i.p., 20 min after injection

## O=c1cc(-c2ccccc2)oc2cc(O)cc(O)c12 [chrysin, 5,7-dihydroxyflavone]
Mice [1]
  Locomotor activity: significant increase in locomotor activity
Benzodiazepine receptors
  Binding properties for benzodiazepine receptors: binding properties for benzodiazepine receptors
Mice [2]; 0.6-30 mg/kg i.p.
  Effect in horizontal wire test / muscle relaxant effect: ineffective in the same test and produced no muscle relaxant effect
Mice [2]; i.p.
  Muscle relaxation (summary): did not exhibit sedation or muscle relaxation
Mice [3]; 3 mg/kg i.p.
  Time spent head-dipping: significant increase in the time spent head-dipping
Mice [3]; 10 mg/kg i.p.
  Sedative effects: did not elicit sedative effects
Mice [3]; i.p.
  Sedation (summary): did not exhibit sedation
Benzodiazepine receptor
  Benzodiazepine ligand behaviour / affinity relative to 3H-flunitrazepam: benzodiazepine ligand behaviour similar to that of ^3 H-flunitrazepam
Benzodiazepine receptor; 3H-flunitrazepam 0.7 nM, read-out: IC50 at the benzodiazepine receptor
  IC50: 700 to 3000 nM
Benzodiazepine receptor; bovine brain membranes, 0.7 nM 3H-flunitrazepam, read-out: 3H Flunitrazepam binding IC50
  IC50: 2000 nM
[4]
  Noradrenaline decrease in locus coeruleus provoked by immobilization stress: dampened the noradrenaline decrease
  Potency vs diazepam on stress-provoked noradrenaline decrease: almost equipotent with diazepam
[5]
  Anticonvulsant properties: anticonvulsant properties
Mice [6]; [7]
  Percentage of entries in the open arms: increase in both parameters (p<0.01)
  Percentage of the time spent on the open arms: increase in both parameters (p<0.01)
  Total arm entries: 9.9 ± 0.8
Mice [6]; 3 mg/kg i.p., 20 min after injection
  Total arm entries: 8.7 ± 1.1
Mice [6]; 10 mg/kg i.p., 20 min after injection
  Total arm entries: 10.2 ± 1.1
Mice [6]; chrysin 1 mg/kg, RO 15-1788 3 mg/kg, F (2,49)=3.18
  Total arm entries, with and without RO 15-1788: No significant differences were found
Mice [6]; i.p.
  Anxiolytic effect in the elevated plus maze: had anxiolytic effects
Mice [6]; i.p., doses of Table I
  Total arm entries, difference from controls: No differences were observed
Mice [6]; i.p., listed as CHRY
  Anxiolytic effect in the elevated plus maze: displayed an anxiolytic effect
